Reference: patent US20210023223A1, “HYDROCARBON / LIPID - CAROTENOID COMPLEXES” (IP SCIENCE LIMITED, priority 2018, published 2021)

Legend:
[1] = Acid induced degradation at pH 2.5, gas chromatography; format: physicochemical
Method: Briefly, 100 μl of serum and 2 ml of the stock solution were combined in screw-capped glass tubes. The tubes were capped and heated at 100 C for 60 min. The tubes were allowed to cool down to the room temperature and were extracted twice with 1 ml hexane. The combined hexane solution was evaporated under vacuum (Scan Speed 32 centrifuge) and the residue reconstituted to the volume of 50 μl with of hexane, transferred to GC vials, and capped under nitrogen.
Temperature program, initial: 130 C with a 4 min hold; ramp: 4 C/min to 280 C with a 2 min hold. Carrier gas was He, with a linear velocity of 30 cm/s. Fatty acid analysis was performed by injection of 1 μl of each sample at a split ratio of 50:1. The FID and the Injection port temperature was 300 C. The sampling frequency was 40 Hz. Fatty acids identification was performed with SUPELCO 37 COMPONENT FAME MIX (Supelco, USA). DHA concentrations were calculated on the basis of the standard concentrations. Analytical standard of DHA and PTC (Sigma, USA) were used in the assay.

[2] = system: individuals with a moderate hyperlipidemia; assay: Clinical Trial DHA-Lycopene, 4 weeks; format: in vivo, human; settings: for LDL / Triglycerides: medians, DHA 250 mg and/or lycopene 7 mg once a day
Method: To validate this, a clinical trial was undertaken. 32 individuals aged 40-65 years old with a moderate hyperlipidemia (serum triglycerides, TG, >150 mg/dl and LDL from 130 to 160 mg/dl). They were randomised and split in four groups of 8: • The first was supplemented with a 250 mg of conventional formulation of DHA without lycopene (CF-DHA), • the second with 7 mg of lycopene, • the third with 250 mg of DHA and 7 mg of lycopene co-ingested at the same time but as two separate products, and • the fourth group received 7 mg lycopene formulated with 250 mg of DHA (LF-DHA). All products were taken once a day with the main meal. The duration of the trial was for 4 weeks.

Melting time at 37° C. = format: physicochemical; settings: 1 mg per 1 g of the chocolate; control 19 minutes
Method: Approximately 20 mg of butter, or pork fat, or beef fat, or cocoa butter, or chocolate, with or without certain concentrations of carotenoids, were placed on the surface of the laboratory slides and incubated at 37° C. in a laboratory incubator (TLK39).
Results presented in FIG. 15 show three different carotenoids—lycopene, lutein and astaxanthin, can reduce, albeit to a different degree, the melting time of dark chocolate regardless of its tempering protocols: Protocol I—28° C., Protocol II—29° C., Protocol III—30° C.

[3] = DHA preparation without lycopene
[4] = DHA preparation with lycopene 1 mg per 1 g of DHA

## CCCCCCCCCCCCCCCCCCCC(=O)O [Arachidic]
[1]; [3]
  GC peak Area, %, Baseline: 0.10%
  GC peak Area, Baseline: 1,032

## CCCCC/C=C\C/C=C\C/C=C\C/C=C\CCCC(=O)O [Arachidonic]
[1]; [4]
  GC peak Area, %, After 2 hours at pH 2.5: 0.81%
  GC peak Area, %, Baseline: 0.82%
  GC peak Area, After 2 hours at pH 2.5: 8,565
  GC peak Area, Baseline: 7,859
[1]; [3]
  GC peak Area, %, After 2 hours at pH 2.5: 0.79%
  GC peak Area, %, Baseline: 0.83%
  GC peak Area, After 2 hours at pH 2.5: 5323
  GC peak Area, Baseline: 8,907

## CCCCCCCCCCCCCCCCCCCCCC(=O)O [Behenic]
[1]; [3]
  GC peak Area, %, Baseline: 0.10%
  GC peak Area, Baseline: 1,096

## CCCCCC(=O)O [Caproic]
[1]; [3]
  GC peak Area, %, Baseline: 1.31%
  GC peak Area, Baseline: 13,975

## CC/C=C\C/C=C\C/C=C\C/C=C\C/C=C\C/C=C\CCC(=O)O [DHA, Doxosahexaenoic Acid]
[2]; 0 w
  LDL: 155.5 mg/dL
  Triglycerides: 191.5 mg/dL
[2]; 4 w
  LDL: 153.5 mg/dL
  Triglycerides: 185.5 mg/dL
[2]; 4 weeks
  Reduction of medians of serum TG concentration: 27.5 mg/dL
[2]; 4 weeks, p<0.05
  Reduction in LDL: 19.5 mg/dL

## CCCCCCCC/C=C/CCCCCCCC(=O)O [Elaidic]
[1]; [4]
  GC peak Area, %, After 2 hours at pH 2.5: 0.21%
  GC peak Area, %, Baseline: 0.26%
  GC peak Area, After 2 hours at pH 2.5: 2,205
  GC peak Area, Baseline: 2,537
[1]; [3]
  GC peak Area, %, After 2 hours at pH 2.5: 0.24%
  GC peak Area, %, Baseline: 0.20%
  GC peak Area, After 2 hours at pH 2.5: 1629
  GC peak Area, Baseline: 2,108

## CCCCCCCCCCCC(=O)O [Lauric]
[1]; [4]
  GC peak Area, %, After 2 hours at pH 2.5: 0.15%
  GC peak Area, %, Baseline: 0.14%
  GC peak Area, After 2 hours at pH 2.5: 1,605
  GC peak Area, Baseline: 1,354
[1]; [3]
  GC peak Area, %, Baseline: 0.16%
  GC peak Area, Baseline: 1,718

## CCCCCCCCCCCCCCCCCCCCCCCC(=O)O [Lignoceric]
[1]; [4]
  GC peak Area, %, After 2 hours at pH 2.5: 0.17%
  GC peak Area, %, Baseline: 0.17%
  GC peak Area, After 2 hours at pH 2.5: 1,775
  GC peak Area, Baseline: 1,613
[1]; [3]
  GC peak Area, %, After 2 hours at pH 2.5: 0.17%
  GC peak Area, %, Baseline: 0.14%
  GC peak Area, After 2 hours at pH 2.5: 1162
  GC peak Area, Baseline: 1,518

## CCCCC/C=C\C/C=C\CCCCCCCC(=O)O [Linoleic]
[1]; [4]
  GC peak Area, %, After 2 hours at pH 2.5: 0.98%
  GC peak Area, %, Baseline: 1.28%
  GC peak Area, After 2 hours at pH 2.5: 10,395
  GC peak Area, Baseline: 12,328
[1]; [3]
  GC peak Area, %, After 2 hours at pH 2.5: 1.25%
  GC peak Area, %, Baseline: 0.89%
  GC peak Area, After 2 hours at pH 2.5: 8396
  GC peak Area, Baseline: 9,494

## CC1=C[C@H](O)CC(C)(C)[C@H]1/C=C/C(C)=C/C=C/C(C)=C/C=C/C=C(C)/C=C/C=C(C)/C=C/C1=C(C)C[C@@H](O)CC1(C)C [Lutein, lutein]
Melting time at 37° C.
  Melting time of dark chocolate: 6 min

## CCCCCCCCCCCCCC(=O)O [Myristic]
[1]; [4]
  GC peak Area, %, After 2 hours at pH 2.5: 6.56%
  GC peak Area, %, Baseline: 6.42%
  GC peak Area, After 2 hours at pH 2.5: 69,816
  GC peak Area, Baseline: 61,814
[1]; [3]
  GC peak Area, %, After 2 hours at pH 2.5: 6.42%
  GC peak Area, %, Baseline: 6.23%
  GC peak Area, After 2 hours at pH 2.5: 43,118
  GC peak Area, Baseline: 73,096

## CCCC/C=C\CCCCCCCC(=O)O [Myristoleic]
[1]; [4]
  GC peak Area, %, After 2 hours at pH 2.5: 0.17%
  GC peak Area, %, Baseline: 0.17%
  GC peak Area, After 2 hours at pH 2.5: 1,789
  GC peak Area, Baseline: 1,662
[1]; [3]
  GC peak Area, %, After 2 hours at pH 2.5: 0.18%
  GC peak Area, %, Baseline: 0.18%
  GC peak Area, After 2 hours at pH 2.5: 1,197
  GC peak Area, Baseline: 1,934

## CCCCCCCCCCCCCCCC(=O)O [Palmitic]
[1]; [4]
  GC peak Area, %, After 2 hours at pH 2.5: 17.52%
  GC peak Area, %, Baseline: 17.82%
  GC peak Area, After 2 hours at pH 2.5: 186,438
  GC peak Area, Baseline: 171,664
[1]; [3]
  GC peak Area, %, After 2 hours at pH 2.5: 17.66%
  GC peak Area, %, Baseline: 18.45%
  GC peak Area, After 2 hours at pH 2.5: 118,649
  GC peak Area, Baseline: 197,526

## CCCCCC/C=C\CCCCCCCC(=O)O [Palmitoleic]
[1]; [4]
  GC peak Area, %, After 2 hours at pH 2.5: 0.16%
  GC peak Area, %, Baseline: 0.17%
  GC peak Area, After 2 hours at pH 2.5: 1,710
  GC peak Area, Baseline: 1,598
[1]; [3]
  GC peak Area, %, After 2 hours at pH 2.5: 0.19%
  GC peak Area, %, Baseline: 0.11%
  GC peak Area, After 2 hours at pH 2.5: 1,278
  GC peak Area, Baseline: 1,219

## CCCCCCCCCCCCCCC(=O)O [Pentadecanoic]
[1]; [4]
  GC peak Area, %, After 2 hours at pH 2.5: 0.27%
  GC peak Area, %, Baseline: 0.26%
  GC peak Area, After 2 hours at pH 2.5: 2,843
  GC peak Area, Baseline: 2,511
[1]; [3]
  GC peak Area, %, After 2 hours at pH 2.5: 0.26%
  GC peak Area, %, Baseline: 0.29%
  GC peak Area, After 2 hours at pH 2.5: 1,716
  GC peak Area, Baseline: 3,120

## CCCCCCCCCCCCCCCCCC(=O)O [Stearic]
[1]; [4]
  GC peak Area, %, After 2 hours at pH 2.5: 0.64%
  GC peak Area, %, Baseline: 0.69%
  GC peak Area, After 2 hours at pH 2.5: 6,811
  GC peak Area, Baseline: 6,673
[1]; [3]
  GC peak Area, %, After 2 hours at pH 2.5: 0.68%
  GC peak Area, %, Baseline: 0.66%
  GC peak Area, After 2 hours at pH 2.5: 4597
  GC peak Area, Baseline: 7,051

## CCC=CCC=CCC=CCC=CCC=CC/C=C\CCC(=O)O [cis-4,7,10,13,16,19-Docosahexaenoic]
[1]; [4]
  GC peak Area, %, After 2 hours at pH 2.5: 43.60%
  GC peak Area, %, Baseline: 42.55%
  GC peak Area, After 2 hours at pH 2.5: 464,051
  GC peak Area, Baseline: 409,974
[1]; [3]
  GC peak Area, %, After 2 hours at pH 2.5: 43.54%
  GC peak Area, %, Baseline: 42.63%
  GC peak Area, After 2 hours at pH 2.5: 292,485
  GC peak Area, Baseline: 456,572

## CCC=CCC=CCC=CCC=CC/C=C\CCCC(=O)O [cis-5,8,11,14,17-eicosapentaenoic]
[1]; [4]
  GC peak Area, %, After 2 hours at pH 2.5: 1.01%
  GC peak Area, %, Baseline: 1.03%
  GC peak Area, After 2 hours at pH 2.5: 10,759
  GC peak Area, Baseline: 9,937
[1]; [3]
  GC peak Area, %, After 2 hours at pH 2.5: 0.99%
  GC peak Area, %, Baseline: 1.07%
  GC peak Area, After 2 hours at pH 2.5: 6679
  GC peak Area, Baseline: 11,447

## CCCCC/C=C\C/C=C\C/C=C\CCCCC(=O)O [gamma-Linolenic]
[1]; [4]
  GC peak Area, %, After 2 hours at pH 2.5: 0.26%
  GC peak Area, %, Baseline: 0.27%
  GC peak Area, After 2 hours at pH 2.5: 2,767
  GC peak Area, Baseline: 2,627
[1]; [3]
  GC peak Area, %, After 2 hours at pH 2.5: 0.28%
  GC peak Area, %, Baseline: 0.28%
  GC peak Area, After 2 hours at pH 2.5: 1,851
  GC peak Area, Baseline: 3,030

## Linole/alpha-linilenic
[1]; [4]
  GC peak Area, %, After 2 hours at pH 2.5: 6.42%
  GC peak Area, %, Baseline: 6.63%
  GC peak Area, After 2 hours at pH 2.5: 68,330
  GC peak Area, Baseline: 63,846
[1]; [3]
  GC peak Area, %, After 2 hours at pH 2.5: 6.72%
  GC peak Area, %, Baseline: 6.53%
  GC peak Area, After 2 hours at pH 2.5: 45112
  GC peak Area, Baseline: 69,917

## cis-8,11,14,17-eicosapentaenoic
[1]; [4]
  GC peak Area, %, After 2 hours at pH 2.5: 0.55%
  GC peak Area, %, Baseline: 0.46%
  GC peak Area, After 2 hours at pH 2.5: 5,889
  GC peak Area, Baseline: 4,391
[1]; [3]
  GC peak Area, %, After 2 hours at pH 2.5: 0.42%
  GC peak Area, %, Baseline: 0.47%
  GC peak Area, After 2 hours at pH 2.5: 2800
  GC peak Area, Baseline: 5,002
